# Test results published in US20260265265A1, “NOVEL BENZIMIDAZOLONE DERIVATIVE COMPOUND AS AUTOTAXIN INHIBITOR” (LG CHEM, LTD., priority 2023, published 2026).
# pIC50: −log10 of the molar value.
# Target: T1, Recombinant Human ENPP-2/Autotaxin (Homo sapiens, UniProt Q13822)
# T1 construct: purchased R&D systems 5255-EN
# Assay: LysoPLD activity measurement (autotaxin enzyme inhibition, choline release, TOOS reagent)
# Format: biochemical
# Conditions: LysoPLD inhibitory activity; substrate 14:0 LysoPC; absorbance at 555 nm
# How it was run: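 Autotaxin lysoPLD activity was read as choline released from 14:0 LysoPC, detected by TOOS reagent absorbance. Compound was preincubated 30 min, then substrate diluted to 300 μM was added and the reaction ran 90 minutes at 37° C. Controls contained 1% DMSO.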
row,pIC50,Compound
1,6.00 to 7.00,"CN1Cc2cc(-n3c(=O)n(Cc4cccc(C(=O)O)c4)c4ccc(Cl)cc43)ccc2C1=O [Example 116, 3-((5-chloro-3-(2-methyl-1-oxoisoindolin-5-yl)-2-oxo-2,3-dihydro-1H-benzo[d]imidazol-1-yl)methyl)benzoic acid]"
2,6.00 to 7.00,"O=C(O)c1cccc(Cn2c(=O)n(-c3ccc(C4CCN(C5COC5)CC4)cc3)c3cc(Cl)ccc32)c1 [Example 259, 3-((5-chloro-3-(4-(1-(oxetan-3-yl)piperidin-4-yl)phenyl)-2-oxo-2,3-dihydro-1H-benzo[d]imidazol-1-yl)methyl)benzoic acid]"
3,7.00 to 8.00,"O=C(O)c1cccc(C2(n3c(=O)n(-c4ccc(C(=O)N5CC6(COC6)C5)cc4)c4cc(Cl)cnc43)CC2)c1F [Example 233, 3-(1-(1-(4-(2-oxa-6-azaspiro[3.3]heptane-6-carbonyl)phenyl)-6-chloro-2-oxo-1,2-dihydro-3H-imidazo[4,5-b]pyridin-3-yl)cyclopropyl)-2-fluorobenzoic acid]"
4,> 8.00,"O=C(O)c1cccc(C2(n3c(=O)n(-c4ccc(N5CC6(COC6)C5)cc4)c4cc(Cl)ccc43)CC2)c1 [Example 149, 3-(1-(3-(4-(2-oxa-6-azaspiro[3.3]heptane-6-yl)phenyl)-5-chloro-2-oxo-2,3-dihydro-1H-benzo[d]imidazol-1-yl)cyclopropyl)benzoic acid]"
5,7.00 to 8.00,"CN(C)c1ccc(-n2c(=O)n(Cc3cccc(C(=O)O)c3)c3c(F)cc(Cl)cc32)cc1 [Example 66, 3-((5-chloro-3-(4-(dimethylamino)phenyl)-7-fluoro-2-oxo-2,3-dihydro-1H-benzo[d]imidazol-1-yl)methyl)benzoic acid]"
6,6.00 to 7.00,"O=C(O)c1cccc(C2(n3c(=O)n(-c4ccc(Cn5ccc(C(F)(F)F)n5)cc4)c4cc(Cl)ccc43)CC2)c1 [Example 244, 3-(1-(5-chloro-2-oxo-3-(4-((3-(trifluoromethyl)-1H-pyrazol-1-yl)methyl)phenyl)-2,3-dihydro-1H-benzo[d]imidazol-1-yl)cyclopropyl)benzoic acid]"
7,7.00 to 8.00,"CN(C)c1ccc(-n2c(=O)n(Cc3cccc(C(=O)O)c3)c3ccc(Cl)cc32)cn1 [Example 79, 3-((5-chloro-3-(6-(dimethylamino)pyridin-3-yl)-2-oxo-2,3-dihydro-1H-benzo[d]imidazol-1-yl)methyl)benzoic acid]"
8,> 8.00,"O=C(O)c1cccc(C2(n3c(=O)n(-c4ccc(C5CCN(C6COC6)CC5)cc4)c4cc(Cl)ccc43)CC2)c1 [Example 260, 3-(1-(5-chloro-3-(4-(1-(oxetan-3-yl)piperidin-4-yl)phenyl)-2-oxo-2,3-dihydro-1H-benzo[d]imidazol-1-yl)cyclopropyl)benzoic acid]"
9,> 8.00,"CN(C)c1ccc(-n2c(=O)n(C3(c4cc(F)cc(C(=O)O)c4)CC3)c3ncc(Cl)cc32)cc1 [Example 271, 3-(1-(6-chloro-1-(4-(dimethylamino)phenyl)-2-oxo-1,2-dihydro-3H-imidazo[4,5-b]pyridin-3-yl)cyclopropyl)-5-fluorobenzoic acid]"
10,6.00 to 7.00,"O=C(O)c1cccc(Cn2c(=O)n(-c3cnn(C4CCOCC4)c3)c3cc(Cl)ccc32)c1 [Example 86, 3-((5-chloro-2-oxo-3-(1-(tetrahydro-2H-pyran-4-yl)-1H-pyrazol-4-yl)-2,3-dihydro-1H-benzo[d]imidazol-1-yl)methyl)benzoic acid]"
11,> 8.00,"CC1(C)OCc2cc(-n3c(=O)n(C4(c5cccc(C(=O)O)c5)CC4)c4ccc(Cl)cc43)ccc21 [Example 251, 3-(1-(5-chloro-3-(1,1-dimethyl-1,3-dihydroisobenzofuran-5-yl)-2-oxo-2,3-dihydro-1H-benzo[d]imidazol-1-yl)cyclopropyl)benzoic acid]"
12,> 8.00,"O=C(O)c1cc(F)cc(C2(n3c(=O)n(-c4ccc(N5CCC(F)(F)CC5)cc4)c4cc(Cl)ccc43)CC2)c1 [Example 197, 3-(1-(5-chloro-3-(4-(4,4-difluoropiperidin-1-yl)phenyl)-2-oxo-2,3-dihydro-1H-benzo[d]imidazol-1-yl)cyclopropyl)-5-fluorobenzoic acid]"
